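96-well plates; 48 h exposure; 5 concentrations. Endpoints by linear interpolation between flanking doses. Not reached: highest tested concentration assigned. The concentration for 50% growth inhibition is given as GI50. TGI: concentration producing complete growth inhibition.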
Experiments:
Assay in all cases: NCI tumour cell line growth inhibition, 48 h
786-0 renal = tested on: 786-0 renal
A498 renal = tested on: A498 renal
A549 NSCLC = tested on: A549 NSCLC
ACHN renal = tested on: ACHN renal
BT-549 breast = tested on: BT-549 breast
CAKI-1 renal = tested on: CAKI-1 renal
CCRF-CEM leukemia = tested on: CCRF-CEM leukemia
COLO 205 colon = tested on: COLO 205 colon
DU-145 prostate = tested on: DU-145 prostate
EKVX NSCLC = tested on: EKVX NSCLC
HCC-2998 colon = tested on: HCC-2998 colon
HCT-116 colon = tested on: HCT-116 colon
HCT-15 colon = tested on: HCT-15 colon
HL-60(TB) leukemia = tested on: HL-60(TB) leukemia
HOP-62 NSCLC = tested on: HOP-62 NSCLC
HOP-92 NSCLC = tested on: HOP-92 NSCLC
HS 578T breast = tested on: HS 578T breast
HT29 colon = tested on: HT29 colon
IGROV1 ovarian = tested on: IGROV1 ovarian
K-562 leukemia = tested on: K-562 leukemia
KM12 colon = tested on: KM12 colon
LOX IMVI melanoma = tested on: LOX IMVI melanoma
M14 melanoma = tested on: M14 melanoma
MALME-3M melanoma = tested on: MALME-3M melanoma
MCF7 breast = tested on: MCF7 breast
MDA-MB-231 breast = tested on: MDA-MB-231 breast
MDA-MB-435 = tested on: MDA-MB-435
MOLT-4 leukemia = tested on: MOLT-4 leukemia
NCI-H226 lung = tested on: NCI-H226 lung
NCI-H23 lung = tested on: NCI-H23 lung
NCI-H460 lung = tested on: NCI-H460 lung
NCI-H522 lung = tested on: NCI-H522 lung
NCI/ADR-RES ovarian = tested on: NCI/ADR-RES ovarian
OVCAR-3 ovarian = tested on: OVCAR-3 ovarian
OVCAR-4 ovarian = tested on: OVCAR-4 ovarian
OVCAR-5 ovarian = tested on: OVCAR-5 ovarian
OVCAR-8 ovarian = tested on: OVCAR-8 ovarian
PC-3 prostate = tested on: PC-3 prostate
RPMI-8226 leukemia = tested on: RPMI-8226 leukemia
RXF 393 renal = tested on: RXF 393 renal
SF-268 CNS = tested on: SF-268 CNS
SF-295 CNS = tested on: SF-295 CNS
SF-539 CNS = tested on: SF-539 CNS
SK-MEL-2 melanoma = tested on: SK-MEL-2 melanoma
SK-MEL-28 melanoma = tested on: SK-MEL-28 melanoma
SK-MEL-5 melanoma = tested on: SK-MEL-5 melanoma
SK-OV-3 ovarian = tested on: SK-OV-3 ovarian
SN12C renal = tested on: SN12C renal
SNB-19 CNS = tested on: SNB-19 CNS
SNB-75 CNS = tested on: SNB-75 CNS
SR leukemia = tested on: SR leukemia
SW-620 colon = tested on: SW-620 colon
T-47D breast = tested on: T-47D breast
TK-10 renal = tested on: TK-10 renal
U251 CNS = tested on: U251 CNS
UACC-257 melanoma = tested on: UACC-257 melanoma
UACC-62 melanoma = tested on: UACC-62 melanoma
UO-31 renal = tested on: UO-31 renal

## COc1cc2c(O[C@@H]3OC[C@H](OC(C)=O)[C@H](OC(C)=O)[C@H]3O)c3c(c(-c4ccc5c(c4)OCO5)c2cc1OC)C(=O)OC3
786-0 renal
  GI50: 2.03 µM
  TGI: > 7.81 µM
A498 renal
  GI50: 1.13 µM
  TGI: > 10 µM
A549 NSCLC
  GI50: 0.613 µM
  TGI: > 10 µM
ACHN renal
  GI50: 0.566 µM
  TGI: > 10 µM
BT-549 breast
  GI50: 0.0722 µM
  TGI: > 7.76 µM
CAKI-1 renal
  GI50: 0.0931 µM
  TGI: > 10 µM
CCRF-CEM leukemia
  GI50: 0.498 µM
  TGI: > 10 µM
COLO 205 colon
  GI50: 0.0764 µM
  TGI: > 10 µM
DU-145 prostate
  GI50: 0.754 µM
  TGI: > 10 µM
EKVX NSCLC
  GI50: 0.859 µM
  TGI: > 10 µM
HCC-2998 colon
  GI50: 1.56 µM
  TGI: > 10 µM
HCT-116 colon
  GI50: 0.167 µM
  TGI: > 10 µM
HCT-15 colon
  GI50: 0.725 µM
  TGI: > 10 µM
HL-60(TB) leukemia
  GI50: 0.433 µM
  TGI: > 10 µM
HOP-62 NSCLC
  GI50: 0.797 µM
  TGI: > 10 µM
HOP-92 NSCLC
  GI50: 0.178 µM
  TGI: 1.4 µM
HS 578T breast
  GI50: 3.99 µM
  TGI: > 10 µM
HT29 colon
  GI50: 0.165 µM
  TGI: > 10 µM
IGROV1 ovarian
  GI50: 0.4 µM
  TGI: > 10 µM
K-562 leukemia
  GI50: 0.436 µM
  TGI: > 10 µM
KM12 colon
  GI50: 0.471 µM
  TGI: > 10 µM
LOX IMVI melanoma
  GI50: 0.0233 µM
  TGI: 0.0908 µM
M14 melanoma
  GI50: 0.192 µM
  TGI: 0.649 µM
MALME-3M melanoma
  GI50: 0.565 µM
  TGI: > 5.34 µM
MCF7 breast
  GI50: 0.684 µM
  TGI: > 10 µM
MDA-MB-231 breast
  GI50: 0.0754 µM
  TGI: 1.8 µM
MDA-MB-435
  GI50: 0.359 µM
  TGI: 3.06 µM
MOLT-4 leukemia
  GI50: 0.437 µM
  TGI: > 10 µM
NCI-H226 lung
  GI50: 0.253 µM
  TGI: > 10 µM
NCI-H23 lung
  GI50: 3.24 µM
  TGI: > 10 µM
NCI-H460 lung
  GI50: 0.255 µM
  TGI: > 10 µM
NCI-H522 lung
  GI50: 0.252 µM
  TGI: > 10 µM
NCI/ADR-RES ovarian
  GI50: 1.83 µM
  TGI: > 10 µM
OVCAR-3 ovarian
  GI50: > 5.48 µM
  TGI: > 10 µM
OVCAR-4 ovarian
  GI50: > 3.12 µM
  TGI: > 10 µM
OVCAR-5 ovarian
  GI50: 0.112 µM
  TGI: > 10 µM
OVCAR-8 ovarian
  GI50: 0.189 µM
  TGI: > 10 µM
PC-3 prostate
  GI50: 0.87 µM
  TGI: > 10 µM
RPMI-8226 leukemia
  GI50: 0.0647 µM
  TGI: > 3.75 µM
RXF 393 renal
  GI50: 0.267 µM
  TGI: > 10 µM
SF-268 CNS
  GI50: 1.47 µM
  TGI: > 10 µM
SF-295 CNS
  GI50: 0.27 µM
  TGI: 0.923 µM
SF-539 CNS
  GI50: 0.437 µM
  TGI: > 10 µM
SK-MEL-2 melanoma
  GI50: 1.05 µM
  TGI: 6.91 µM
SK-MEL-28 melanoma
  GI50: 0.264 µM
  TGI: 2.87 µM
SK-MEL-5 melanoma
  GI50: 0.0572 µM
SK-OV-3 ovarian
  TGI: > 10 µM
SN12C renal
  GI50: 0.284 µM
  TGI: > 10 µM
SNB-19 CNS
  GI50: > 9.57 µM
  TGI: > 10 µM
SNB-75 CNS
  GI50: 0.274 µM
  TGI: > 5.89 µM
SR leukemia
  GI50: 0.059 µM
  TGI: > 10 µM
SW-620 colon
  GI50: 0.491 µM
  TGI: > 10 µM
T-47D breast
  GI50: 0.115 µM
  TGI: > 10 µM
TK-10 renal
  TGI: > 10 µM
U251 CNS
  GI50: 1.16 µM
  TGI: > 10 µM
UACC-257 melanoma
  GI50: 0.276 µM
  TGI: 1.17 µM
UACC-62 melanoma
  GI50: 0.155 µM
  TGI: 0.517 µM
UO-31 renal
  GI50: 1.78 µM
  TGI: 6.74 µM

Source: PubChem BioAssay (NCI)
